Data on 14 compounds can be found in ChEMBL document CHEMBL2150949, “Dibenzocycloheptanoids from the leaves of Cinnamomum subavenium” (J Nat Prod, 2012).

Where only a bound is given, the exact number is not on record here.

The assay is described as follows: Inhibition of Bacillus stearothermophilus alpha-glucosidase type 4. Also on record: species or system Geobacillus stearothermophilus.
As to `COCC1=CCc2cc(OC)ccc2-c2cc(O)c(OC)cc21`, the IC50 (in general, the concentration at which inhibition is half-maximal) came out at 118 µM.

`COc1cc([C@@H]2Oc3c(OC)cc(CCCO)cc3[C@@H]2CO[C@@H]2OC[C@@H](O)[C@H](O)[C@H]2O)ccc1O` showed an IC50 of 77.1 µM.

`CC/C=C/CCO[C@@H]1O[C@H](CO)[C@@H](O)[C@H](O)[C@H]1O` displayed an IC50 greater than 150 µM.

In turn, `C=CCc1ccc(O[C@@H]2O[C@H](CO[C@@H]3OC[C@](O)(CO)[C@H]3O)[C@@H](O)[C@H](O)[C@H]2O)cc1` displayed a half-inhibitory concentration (IC50) greater than 150 µM.

Compound `CCCC(=O)c1c(O)cc(O)cc1O[C@@H]1O[C@H](CO)[C@@H](O)[C@H](O)[C@H]1O` registered an IC50 greater than 150 µM.

As for `O=C1C[C@H](c2ccc(O)cc2)Oc2cc(O)cc(O[C@@H]3O[C@H](CO)[C@@H](O)[C@H](O)[C@H]3O)c21`, the midpoint of inhibition, the IC50, lay at 39.8 µM.

Regarding `O=C1C[C@@H](c2ccc(O)cc2)Oc2cc(O)cc(O[C@@H]3O[C@H](CO)[C@@H](O)[C@H](O)[C@H]3O)c21`, the IC50 was determined as 28.3 µM.

The compound `C[C@H]1O[C@H](O[C@H]2[C@H](O)[C@@H](O)[C@@H](O[C@H]3[C@H](O)[C@@H](O)C(O)O[C@@H]3CO)O[C@@H]2CO)[C@H](O)[C@@H](O)[C@@H]1N[C@H]1C=C(CO)[C@@H](O)[C@H](O)[C@H]1O` (some centres undefined) [ACARBOSE] gave an IC50 of 0.034 µM.

`OCCc1ccc(O)c(O)c1` [HYDROXYTYROSOL] yielded an IC50 of 109 µM.

In turn, `C[C@@H]1O[C@@H](OC[C@H]2O[C@@H](Oc3c(-c4ccc(O)cc4)oc4cc(O)cc(O)c4c3=O)[C@H](O)[C@@H](O)[C@@H]2O)[C@H](O)[C@H](O)[C@H]1O` [NICOTIFLOROSIDE] displayed an IC50 of 110 µM. This IC50 and that of the compound before are within 1.5-fold of each other.

In turn, `O=C(CCc1ccc(O)cc1)c1c(O)cc(O)cc1O[C@@H]1O[C@H](CO)[C@@H](O)[C@H](O)[C@H]1O` [PHLORIZIN] came in with an IC50 of 60.5 µM.

On to `COc1cc2c(cc1O)-c1ccccc1CC=C2CO[C@@H]1O[C@H](CO)[C@@H](O)[C@H](O)[C@H]1O` [SUBAVENOSIDE A], for which inhibition was half-maximal at 142 µM (IC50).

Turning to `COc1cc2c(cc1O[C@@H]1O[C@H](CO)[C@@H](O)[C@H](O)[C@H]1O)-c1ccccc1CC=C2CO` [SUBAVENOSIDE D], it took 50.7 µM to reach half-maximal inhibition (IC50).

Consider `COCC1=CCc2cc(OC)ccc2-c2cc(O[C@@H]3O[C@H](CO)[C@@H](O)[C@H](O)[C@H]3O)c(OC)cc21` [SUBAVENOSIDE E], for which the IC50 turned out to be 19 µM.
